Results published in ChEMBL document CHEMBL1141186, “2-(Benzimidazol-2-yl)quinoxalines: a novel class of selective antagonists at human A(1) and A(3) adenosine receptors designed by 3D database searching” (J Med Chem, 2005).

Columns and labels:
Format in all cases: cell-based
Adenosine receptor A1 = target: T1, Adenosine receptor A1 (Homo sapiens, UniProt P30542); test: Displacement of [3H]DPCPX from human adenosine A1 receptor expressed in CHO cells
T1 sequence (P30542 whole entry): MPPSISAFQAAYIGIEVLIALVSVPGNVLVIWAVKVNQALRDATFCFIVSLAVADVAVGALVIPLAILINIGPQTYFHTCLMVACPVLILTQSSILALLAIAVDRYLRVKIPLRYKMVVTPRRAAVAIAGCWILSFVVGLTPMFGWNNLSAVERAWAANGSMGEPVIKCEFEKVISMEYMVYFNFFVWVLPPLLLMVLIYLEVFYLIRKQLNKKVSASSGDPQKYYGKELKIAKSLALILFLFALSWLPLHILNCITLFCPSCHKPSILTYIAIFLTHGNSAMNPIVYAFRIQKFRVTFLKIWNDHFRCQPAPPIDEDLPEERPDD

Adenosine receptor A2a = Adenosine receptor A2a (Homo sapiens, UniProt P29274); test: Displacement of [3H]NECA from human adenosine A2A receptor expressed in CHO cells
Adenosine receptor A2a, sequence (P29274 whole entry): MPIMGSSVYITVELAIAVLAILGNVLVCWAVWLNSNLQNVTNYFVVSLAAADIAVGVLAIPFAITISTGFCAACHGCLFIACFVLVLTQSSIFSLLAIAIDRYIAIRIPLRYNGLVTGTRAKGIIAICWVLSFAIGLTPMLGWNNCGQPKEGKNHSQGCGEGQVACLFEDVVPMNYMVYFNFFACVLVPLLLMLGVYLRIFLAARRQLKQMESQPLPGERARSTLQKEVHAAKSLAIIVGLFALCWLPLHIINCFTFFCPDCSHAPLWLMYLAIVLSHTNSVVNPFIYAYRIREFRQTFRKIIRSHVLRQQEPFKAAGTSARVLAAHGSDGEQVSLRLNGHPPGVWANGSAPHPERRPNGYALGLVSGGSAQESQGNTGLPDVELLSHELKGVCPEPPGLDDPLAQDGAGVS

Adenosine receptor A3 = target: T2, Adenosine receptor A3 (Homo sapiens, UniProt P0DMS8); test: Displacement of [125I]AB-MECA from human adenosine A3 receptor expressed in CHO cells
T2 sequence (P0DMS8 whole entry): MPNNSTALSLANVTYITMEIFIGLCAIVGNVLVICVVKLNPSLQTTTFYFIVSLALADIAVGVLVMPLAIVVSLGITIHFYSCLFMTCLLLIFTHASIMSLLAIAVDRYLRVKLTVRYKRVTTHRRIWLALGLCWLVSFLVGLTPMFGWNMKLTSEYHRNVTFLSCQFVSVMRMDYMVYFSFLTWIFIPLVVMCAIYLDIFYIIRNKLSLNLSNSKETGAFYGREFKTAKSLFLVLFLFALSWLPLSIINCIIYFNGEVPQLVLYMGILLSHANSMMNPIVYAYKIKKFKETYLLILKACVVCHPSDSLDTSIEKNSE

Row | Compound | Ki (Adenosine receptor A1) | Ki (Adenosine receptor A2a) | Ki (Adenosine receptor A3)
1 | COc1ccc2nc(-c3cnc4ccccc4n3)[nH]c2c1 | > 10000 nM | > 10 µM | > 1000 nM
2 | O=[N+]([O-])c1cccc2[nH]c(-c3cnc4ccccc4n3)nc12 | > 10000 nM | > 10 µM | 879 nM
3 | Cc1cc(Cl)cc2[nH]c(-c3cnc4ccccc4n3)nc12 | 3.6 nM | > 10 µM | 238 nM
4 | CCc1nc2c3[nH]c(C)nc3c3nc(C)[nH]c3c2[nH]1 | 496 nM | > 10 µM | 147 nM
5 | c1c[nH]c2nc(-c3cnc4ccccc4n3)nc-2c1 | > 10000 nM | > 10 µM | > 1000 nM
6 | Clc1ccc2[nH]c(-c3cnc4ccccc4n3)nc2c1 | > 10000 nM | > 10 µM | 632 nM
7 | Oc1c2nnnc-2nc2n1CCS2 | > 10000 nM | > 10 µM | > 1000 nM
8 | Cc1nc2c([nH]1)c1nc(C)[nH]c1c1nc(C)[nH]c21 | > 10000 nM | > 10 µM | 
9 | c1ccc(-c2nnc(-c3ccccn3)[nH]2)nc1 | > 10000 nM | > 10 µM | 
10 | c1ccc2nc(-c3nc4cc[nH]cc-4n3)cnc2c1 | > 10000 nM | > 10 µM | 168 nM
11 | Oc1c2nnnc-2nc2sccn12 | > 10000 nM | > 10 µM | > 1000 nM
12 | O=c1[nH]c2ccccc2nc1-c1cc(Cl)[nH]n1 |  | > 10 µM | 
13 | Clc1cccc2nc(-c3cnc4ccccc4n3)[nH]c12 | 350 nM | > 10 µM | 140 nM
14 | CC1CSc2nc3nnnc-3c(O)n21 (configuration not stated) | > 10000 nM | > 10 µM | 

Results, then the molecule that gave them:

Row | Ki (Adenosine receptor A1) | Ki (Adenosine receptor A2a) | Ki (Adenosine receptor A3) | Compound
15 | > 10000 nM | > 10 µM | > 1000 nM | Cc1ccc2[nH]c(-c3cnc4ccccc4n3)nc2c1
16 | > 10000 nM | > 10 µM | 437 nM | Oc1c2nnnc-2nc2n1CCCS2
17 | > 10000 nM | > 10 µM | 370 nM | Cc1cc2nc(-c3cnc4ccccc4n3)[nH]c2cc1C
18 | 9.3 nM | > 10 µM | 699 nM | Clc1cc(Cl)c2[nH]c(-c3cnc4ccccc4n3)nc2c1
19 | > 10000 nM | > 10 µM | > 1000 nM | c1ccc2nc(-c3nc4ncncc4[nH]3)cnc2c1
20 | 0.5 nM | 3.44 µM |  | CCSc1cccc2[nH]c(-c3cnc4ccccc4n3)nc12
21 | 2.1 nM | 3 µM | 278 nM | CSc1cccc2nc(-c3cnc4ccccc4n3)[nH]c12
22 | 46 nM | 0.72 µM | 104 nM | CCc1nc2c([nH]1)c1nc(CC)[nH]c1c1nc(CC)[nH]c21
23 | 8000 nM | 0.833 µM |  | Cc1cccc2[nH]c(-c3cnc4ccccc4n3)nc12
24 | 50 nM | 0.561 µM |  | c1ccc2nc(-c3nc4ccccc4[nH]3)cnc2c1
25 | 966 nM | 0.329 µM | 135 nM | CCc1nc2c([nH]1)c1nc(C)[nH]c1c1nc(CC)[nH]c12
